Source: article PMC10146281, “Pharmacokinetic and Pharmacodynamic Characteristics of Pelubiprofen Tromethamine vs. Pelubiprofen in Healthy Subjects” (Pharmaceutics, 2023)
Like-named read-outs stand apart in the source and are kept apart here.

Tests used:
[1] = Study II safety and tolerability evaluation (adverse events); assay type: in vivo, human; settings: treatment of test (30 mg pelubiprofen tromethamine), 36 subjects evaluated, mild, 'not related'
Procedure: In both Study I and II, the safety evaluation was performed on subjects administered with the investigational drug at least once. Any clinically significant findings in the interview, physical examination, vital signs, 12-lead electrocardiogram (ECG), the clinical laboratory test, etc., during the study period were collected as adverse events, which were subsequently evaluated for the incidence of serious adverse events, severity, causal relationship, etc. All relevant data were collected through monitoring by the investigator and voluntary reporting by the subjects. To collect additional data, interview and physical examination were performed where necessary. The investigator carried out the follow-up monitoring of the subjects with adverse events until the symptoms subsided and abnormal test values returned to a healthy baseline or until a satisfactory explanation for the observed change could be provided.

[2] = design: method as in PMID 34070062; settings: non-clinical studies; cited from earlier work
[3] = target: T1, cyclooxygenase-2 (COX-2) (Homo sapiens, UniProt P35354)
T1 sequence (P35354 18-604): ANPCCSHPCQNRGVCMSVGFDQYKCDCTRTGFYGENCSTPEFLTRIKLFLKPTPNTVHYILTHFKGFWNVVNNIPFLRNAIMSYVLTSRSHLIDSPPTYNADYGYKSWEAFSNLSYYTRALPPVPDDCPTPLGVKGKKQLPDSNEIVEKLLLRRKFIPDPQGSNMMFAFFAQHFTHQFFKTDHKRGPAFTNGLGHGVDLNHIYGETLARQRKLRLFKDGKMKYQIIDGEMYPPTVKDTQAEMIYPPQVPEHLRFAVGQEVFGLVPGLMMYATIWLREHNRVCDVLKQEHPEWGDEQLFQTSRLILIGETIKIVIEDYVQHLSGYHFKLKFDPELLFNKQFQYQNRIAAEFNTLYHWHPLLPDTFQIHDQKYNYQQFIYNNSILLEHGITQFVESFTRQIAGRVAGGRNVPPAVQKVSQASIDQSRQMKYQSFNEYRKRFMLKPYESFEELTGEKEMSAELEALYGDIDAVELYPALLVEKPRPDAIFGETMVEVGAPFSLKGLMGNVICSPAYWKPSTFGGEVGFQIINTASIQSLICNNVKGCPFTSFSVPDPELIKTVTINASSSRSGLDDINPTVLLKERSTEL
Procedure: To analyze the pharmacodynamic (PD) characteristics, approximately 1 mL of blood was sampled from the subjects in Study I, who had agreed to participate in the associated PD evaluation. The blood sampling was performed before administration (0 h) and at the following time points after administration: 0.083 h (5 min), 0.167 h (10 min), 0.33 h (20 min) and 0.5, 0.75, 1, 1.5, 2, 2.5, 3, 3.5, 4, 6, and 8 h. Therefore, for each subject, the blood sampling was performed 15 times in each period. While the PD analysis was performed on the same schedule as the PK analysis, only period 1 and 2 results were included in the analyses, and the post study visit was not performed.
The pharmacodynamic (PD) analysis was performed on the subjects in Study I, who had agreed to participate in the PD evaluation. For pharmacodynamic evaluation, the lipopolysaccharide (LPS) from E. coli O111:B4 (Sigma-Aldrich, Seoul, Republic of Korea) and the prostaglandin E2 (PGE2) enzyme-linked immunosorbent assay (ELISA) monoclonal kit (Cayman Chemical, MI, USA) were used. This study was conducted on healthy subjects, and LPS was added to sampled blood to induce inflammatory gene expression. The following procedures were applied for the PGE2 concentration analysis of subjects in Study I, who had agreed to participate in the pharmacodynamic evaluation.
Into 1.0 mL of sampled blood, 10 μL of lipopolysaccharide (LPS) was added. The mixture was centrifuged at […] and 4 °C for 10 min. By mixing the PGE2 ELISA standard and 1.0 mL of ELISA buffer, the standard reagents were produced at 1000, 500, 250, 125, 62.5, 31.3, 15.6, 7.8 pg/mL concentrations. Subsequently, to each well of the 96-well plate, 50 μL of the standard reagent, PGE2 acetylcholinesterase (AChE) tracer, and PGE2 monoclonal antibody were added. Each plate was then covered with a plastic film to be cultured at 4 °C for 18 h. Then, the wells were washed with the buffer solution 5 times, after which 200 μL of Ellman’s reagent was added to each well. The plate was covered with film once more to be placed on an orbital shaker for 60 min. The plate was read at a wavelength of 410 nm.
Pharmacodynamic (PD) was analyzed with data from the first and second periods. The plasma Prostaglandin E2 (PGE2) concentration in the first and second periods of Study I was measured using the enzyme-linked immunosorbent assay (ELISA) at the same time points as in the PK analysis: before investigational drug administration (0 h) and after drug administration at 0.083 h (5 min), 0.167 h (10 min), 0.33 h (20 min), and 0.5, 0.75, 1, 1.5, 2, 2.5, 3, 3.5, 4, 6, and 8 h. Therefore, for each subject, the measurements were taken 15 times in each period. While the PD analysis was performed on the same schedule as the PK analysis, only period 1 and 2 results were included in the analyses, and the post-study visit was not performed.
The PGE2 concentration and the cyclooxygenase-2 (COX-2) inhibitory effect derived from baseline (0 h time point before drug administration) values for each subject in Study I were visualized. The decreased level of calibrated PGE2 concentration performed in accordance with the concentration at baseline for each subject was tested as the extent of COX-2 inhibition, and the GMR and respective 90% CI of the COX-2 inhibition were applied in the PD analysis.
The pharmacodynamic (PD) data from the subjects in Study I, who had agreed to participate in the PD evaluation, were analyzed as follows to check for outliers. Grubbs’ test was performed when the normality of the data was satisfied; otherwise, a boxplot was drawn for log-transformed values, after which values outside the interquartile range (IQR) were checked for subsequent use in Grubb’s test. For significant outliers, the data excluding the values were analyzed once again.

[4] = design: method as in earlier work; settings: cited from earlier work
[5] = Study I, all subjects N = 30, 25 mg pelubiprofen tromethamine vs. 30 mg pelubiprofen
[6] = Study I, without outliers N = 28, 25 mg pelubiprofen tromethamine vs. 30 mg pelubiprofen

| SMILES | adverse events [1] | solubility and absorption compared to pelubiprofen [2] | Tmax,i (time of peak baseline-corrected COX-2 inhibition) ([3]; Study I periods 1 and 2, all subjects N = 30, single oral 25 mg pelubiprofen tromethamine, median (minimum–maximum)) | Tmax,I (time of peak baseline-corrected COX-2 inhibition) ([3]; Study I periods 1 and 2, without outliers (A03 and A08) N = 28, single oral 25 mg pelubiprofen tromethamine, median (minimum–maximum)) | Geometric Mean Ratio (90% CI) of AUIC [3, 5] | Geometric Mean Ratio (90% CI) of Imax [3, 5] | Geometric Mean Ratio (90% CI) of Tmax,i [3, 5] | maximum COX-2 inhibitory effect compared to the reference ([3]; Study I, all subjects, 25 mg pelubiprofen tromethamine compared to 30 mg pelubiprofen) | COX-2 inhibitory effect compared to the reference ([3]; Study I, excluding two outlier subjects (A03 and A08), 25 mg pelubiprofen tromethamine compared to 30 mg pelubiprofen) | Geometric Mean Ratio (90% CI) of AUIC [3, 6] | Geometric Mean Ratio (90% CI) of Imax [3, 6] | Geometric Mean Ratio (90% CI) of Tmax,I [3, 6] | Geometric Mean Ratio (90% CI) of Imax ([3]; Study I, without outliers N = 28, 25 mg pelubiprofen tromethamine vs. 30 mg pelubiprofen, listed as pelubiprofen tromethamine) | protein binding rate [4] | time after administration until which COX-2 inhibition was maintained ([3]; Study I, single oral 30 mg pelubiprofen) | Tmax,I (time of peak baseline-corrected COX-2 inhibition) ([3]; human, in vivo, po, 30 mg) | Tmax,PGE2 ([3]; human, in vivo, po, 30 mg) | Tmax,i (time of peak baseline-corrected COX-2 inhibition) ([3]; human, in vivo, po, 30 mg) |
| --- | --- | --- | --- | --- | --- | --- | --- | --- | --- | --- | --- | --- | --- | --- | --- | --- | --- | --- |
| CC(C(=O)O)c1ccc(/C=C2\CCCCC2=O)cc1 (stereo not drawn) [Pelubiprofen Tromethamine, pelubiprofen tromethamine] | one case of adverse events | enhanced solubility and absorption | 0.50 (0.00–3.50) h | 0.50 (0.17–3.50) h | 1.09 (0.94–1.27) | 0.98 (0.95–1.02) | 1.01 (0.75–1.35) | approximately 98% | approximately 98% | 1.03 (0.91–1.18) | 0.98 (0.95–1.01) | 1.00 (0.73–1.36) | approximately 0.98 | – | – | – | – | – |
| CC(C(=O)O)c1ccc(/C=C2\CCCCC2=O)cc1 (stereo not drawn) [Pelubiprofen, 2-[4-(oxocyclohexylidenemethyl)-phenyl] propionic acid] | – | – | – | – | – | – | – | – | – | – | – | – | – | high protein binding rate | approximately 8 h | 0.50 (0.33–3.50) h | 0.08 (0.00–8.00) h | 0.50 (0.33–3.50) h |
